Measured values published in patent US11254686B1 (Corvus Pharmaceuticals, Inc., priority 2017, dated 2022).

How the values were obtained:
adenosine A1 receptor [1] = biological target: T1, adenosine A1 receptor (Homo sapiens (Human), UniProt P30542); experiment: Adenosine receptor activity assay (Table 1), A1 cAMP; type: cell-based
adenosine A3 receptor [2] = biological target: T2, adenosine A3 receptor (Homo sapiens (Human), UniProt P0DMS8); experiment: Adenosine receptor activity assay (Table 1), A3 cAMP; type: cell-based
[3] = Liver microsome intrinsic clearance, rat; type: in vitro ADME
[4] = Liver microsome intrinsic clearance, human; type: in vitro ADME
adenosine A2B receptor = adenosine A2B receptor (Homo sapiens (Human), UniProt P29275); experiment: Adenosine receptor activity assay (Table 1), A2B activity; type: biochemical; settings: for IC50: read-out: Ave A2B cAMP IC50
adenosine A2A receptor = adenosine A2A receptor (Homo sapiens (Human), UniProt P29274); experiment: Adenosine receptor activity assay (Table 1), A2A activity; type: biochemical; settings: read-out: Ave A2A cAMP IC50
adenosine A1 receptor [5] = biological target: T1, adenosine A1 receptor; experiment: A1 cAMP IC50 assay (Table 1); type: biochemical
[6] = Hepatocyte (Hep) intrinsic clearance, rat; type: in vitro ADME; settings: hepatocytes
[7] = Hepatocyte (Hep) intrinsic clearance, dog; type: in vitro ADME; settings: hepatocytes
[8] = Liver microsome (LM) intrinsic clearance, rat; type: in vitro ADME
[9] = Hepatocyte (Hep) intrinsic clearance, monkey; type: in vitro ADME; settings: hepatocytes
CYP3A4 = CYP3A4 (Homo sapiens (Human), UniProt P08684); experiment: CYP450 inhibition at 10 μM, CYP3A4; type: in vitro ADME; settings: human, 10 μM, read-out: CYP 450 % INH @ 10 μM
[10] = Liver microsome (LM) intrinsic clearance, human; type: in vitro ADME
[11] = Hepatocyte (Hep) intrinsic clearance, human; type: in vitro ADME; settings: hepatocytes
CYP2D6 = CYP2D6 (Homo sapiens (Human), UniProt P10635); experiment: CYP450 inhibition at 10 μM, CYP2D6; type: in vitro ADME; settings: read-out: CYP 450 % INH @ 10 μM
adenosine A3 receptor [12] = biological target: T2, adenosine A3 receptor; experiment: A3 cAMP IC50 assay (Table 1); type: biochemical
CYP 450 = experiment: CYP450 inhibition at 10 μM; type: in vitro ADME
[13] = Hepatocyte intrinsic clearance, human; type: in vitro ADME
[14] = Hepatocyte intrinsic clearance, rat; type: in vitro ADME
adenosine A1 receptor [15] = biological target: T1, adenosine A1 receptor; experiment: Adenosine receptor activity assay (Table 1), A1 cAMP; type: biochemical
Procedure: (§1) Table 1. Compounds (e.g., Adenosine Receptor modulators) and activity assay results. The legend is as follows: A=<10 nM; B=10-50 nM; C=50-100 nM; D=100-500; and E=>500 nM. The ratio corresponds to the A2A activity to the A2B activity; or A2A/A2B.

[16] = Liver microsome intrinsic clearance (LM CLint), rat; type: in vitro ADME
adenosine A3 receptor [17] = biological target: T2, adenosine A3 receptor; experiment: Adenosine receptor activity assay (Table 1), A3 cAMP; type: biochemical
Procedure: as §1

[18] = Liver microsome intrinsic clearance (LM CLint), human; type: in vitro ADME
[19] = A2A activity to A2B activity (A2A/A2B)
[20] = A2A activity to the A2B activity, A2A/A2B

Chain of adenosine A2A receptor (P29274 whole entry): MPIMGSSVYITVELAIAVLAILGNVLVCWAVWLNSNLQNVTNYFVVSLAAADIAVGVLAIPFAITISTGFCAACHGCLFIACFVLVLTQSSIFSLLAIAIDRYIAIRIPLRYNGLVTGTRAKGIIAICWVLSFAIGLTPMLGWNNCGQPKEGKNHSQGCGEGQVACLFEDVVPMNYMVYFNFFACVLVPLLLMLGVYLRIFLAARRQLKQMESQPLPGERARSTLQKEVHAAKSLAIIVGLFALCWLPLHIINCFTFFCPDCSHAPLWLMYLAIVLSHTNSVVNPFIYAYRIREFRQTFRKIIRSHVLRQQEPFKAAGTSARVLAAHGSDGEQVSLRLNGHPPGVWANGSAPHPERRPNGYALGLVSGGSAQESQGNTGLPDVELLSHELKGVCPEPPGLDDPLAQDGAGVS
T1 sequence (P30542 whole entry): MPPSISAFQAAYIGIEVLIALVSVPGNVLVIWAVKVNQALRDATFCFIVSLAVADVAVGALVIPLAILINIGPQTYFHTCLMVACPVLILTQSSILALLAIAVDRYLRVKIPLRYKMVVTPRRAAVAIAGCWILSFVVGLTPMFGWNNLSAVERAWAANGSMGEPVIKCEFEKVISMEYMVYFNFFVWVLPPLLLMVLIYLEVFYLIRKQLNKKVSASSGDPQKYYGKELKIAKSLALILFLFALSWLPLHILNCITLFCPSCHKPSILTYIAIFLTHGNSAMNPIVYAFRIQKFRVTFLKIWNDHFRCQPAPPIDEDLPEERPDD
Chain of CYP2D6 (P10635 whole entry): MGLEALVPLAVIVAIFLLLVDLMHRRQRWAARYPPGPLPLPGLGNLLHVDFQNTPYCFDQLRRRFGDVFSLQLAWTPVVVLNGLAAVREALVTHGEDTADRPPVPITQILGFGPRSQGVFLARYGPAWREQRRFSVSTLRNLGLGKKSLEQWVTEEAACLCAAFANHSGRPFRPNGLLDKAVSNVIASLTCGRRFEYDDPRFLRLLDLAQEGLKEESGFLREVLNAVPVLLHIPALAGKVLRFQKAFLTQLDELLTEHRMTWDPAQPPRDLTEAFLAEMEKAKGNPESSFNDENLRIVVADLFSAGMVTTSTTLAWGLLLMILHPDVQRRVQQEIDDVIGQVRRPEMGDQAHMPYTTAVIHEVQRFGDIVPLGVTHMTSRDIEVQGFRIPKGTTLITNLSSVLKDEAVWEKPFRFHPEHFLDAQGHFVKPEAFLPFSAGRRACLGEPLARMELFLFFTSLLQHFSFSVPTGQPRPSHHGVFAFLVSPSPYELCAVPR
Chain of CYP3A4 (P08684 whole entry): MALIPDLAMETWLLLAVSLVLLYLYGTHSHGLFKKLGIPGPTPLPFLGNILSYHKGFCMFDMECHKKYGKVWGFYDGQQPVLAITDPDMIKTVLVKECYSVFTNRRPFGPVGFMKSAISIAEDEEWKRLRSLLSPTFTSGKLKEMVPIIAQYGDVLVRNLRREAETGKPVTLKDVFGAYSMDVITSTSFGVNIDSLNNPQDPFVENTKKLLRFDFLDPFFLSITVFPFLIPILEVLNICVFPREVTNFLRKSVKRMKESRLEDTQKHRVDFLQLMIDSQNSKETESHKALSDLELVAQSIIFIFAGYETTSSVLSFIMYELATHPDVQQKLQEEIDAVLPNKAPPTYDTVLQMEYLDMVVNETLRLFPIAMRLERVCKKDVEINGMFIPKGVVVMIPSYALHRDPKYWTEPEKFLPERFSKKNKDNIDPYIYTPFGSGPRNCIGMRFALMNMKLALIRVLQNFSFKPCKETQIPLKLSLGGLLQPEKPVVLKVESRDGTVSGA
Chain of adenosine A2B receptor (P29275 whole entry): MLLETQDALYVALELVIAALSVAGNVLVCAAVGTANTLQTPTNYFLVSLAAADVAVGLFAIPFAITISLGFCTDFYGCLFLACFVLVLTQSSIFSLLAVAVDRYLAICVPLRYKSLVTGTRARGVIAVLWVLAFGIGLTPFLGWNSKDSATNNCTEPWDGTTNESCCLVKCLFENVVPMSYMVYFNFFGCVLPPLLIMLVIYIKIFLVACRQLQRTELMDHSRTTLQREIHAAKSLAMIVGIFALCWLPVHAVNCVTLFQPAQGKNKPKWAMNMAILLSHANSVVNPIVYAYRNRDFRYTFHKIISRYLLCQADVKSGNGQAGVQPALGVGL
T2 sequence (P0DMS8 whole entry): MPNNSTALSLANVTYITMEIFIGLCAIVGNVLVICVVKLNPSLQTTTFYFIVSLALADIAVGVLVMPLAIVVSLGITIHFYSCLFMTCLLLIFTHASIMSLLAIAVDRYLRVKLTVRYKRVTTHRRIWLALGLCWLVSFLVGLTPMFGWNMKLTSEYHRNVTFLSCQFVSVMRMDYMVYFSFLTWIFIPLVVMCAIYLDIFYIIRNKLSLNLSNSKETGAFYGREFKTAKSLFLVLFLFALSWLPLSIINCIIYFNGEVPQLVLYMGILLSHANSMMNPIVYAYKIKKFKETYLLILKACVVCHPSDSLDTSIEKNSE

| IC50 (adenosine A1 receptor [1]) [nM] | IC50 (adenosine A3 receptor [2]) [nM] | LM CLint [3] [μL/min/mg/protein] | LM CLint [4] [μL/min/mg/protein] | Ratio (adenosine A2B receptor; [19]) | IC50 (adenosine A2B receptor) [nM] | IC50 (adenosine A2A receptor) [nM] | IC50 (adenosine A1 receptor [5]) [nM] | hepatocyte CLint [6] [µL/min/1e6 cells] | hepatocyte CLint [7] [µL/min/1e6 cells] | LM CLint [8] [μL/min/mg/protein] | hepatocyte CLint [9] [µL/min/1e6 cells] | inhibition at 10 µM (CYP3A4) [%] | LM CLint [10] [μL/min/mg/protein] | hepatocyte CLint [11] [µL/min/1e6 cells] | inhibition at 10 µM (CYP2D6) [%] | IC50 (adenosine A3 receptor [12]) [nM] | Compound | further results |
| --- | --- | --- | --- | --- | --- | --- | --- | --- | --- | --- | --- | --- | --- | --- | --- | --- | --- | --- |
| > 500 | > 500 | 504.21 | 258.52 | 95.47 | < 10 | 100 to 500 |  |  |  |  |  |  |  |  |  |  | C[C@H](Nc1nc(C(=O)NCCc2ccc(O)cc2)c2sccc2n1)c1cncc(F)c1 [Example Z340, (S)-2-((1-(5-Fluoropyridin-3-yl)ethyl)amino)-N-(4-hydroxyphenethyl)thieno[3,2-d]pyrimidine-4-carboxamide] |  |
|  |  |  |  | 5.74 | < 10 | 10 to 50 | > 500 | 45.3 | 41.7 | 11.87 | 18.7 | 7 | 11.20 | 12.7 | 0 | > 500 | C[C@H](Nc1nc(C(=O)N2CC[C@@H](F)C2)c2sccc2n1)c1ccccn1 [Example Z52, ((R)-3-Fluoropyrrolidin-1-yl)(2-(((S)-1-(pyridin-2-yl)ethyl)amino)thieno[3,2-d]pyrimidin-4-yl)methanone] |  |
|  |  |  |  | 39.41 | 50 to 100 | > 500 | > 500 | 34.7 | 2.59 | 9.33 | 0.62 | 35 | 4.55 | 3.48 | 11 | > 500 | C[C@H](Nc1nc(C(=O)N2CC[C@H](O)C2)c2sccc2n1)c1cccnc1 [Example Z28, ((S)-3-Hydroxypyrrolidin-1-yl)(2-(((S)-1-(pyridin-3-yl)ethyl)amino)thieno[3,2-d]pyrimidin-4-yl)methanone] |  |
| > 500 | > 500 | 13.69 | 20.68 | 120.82 | 10 to 50 | > 500 |  |  |  |  |  |  |  |  |  |  | C[C@H](Nc1nc(C(=O)N2CC[C@@H](O)C2)c2sc(C(F)(F)F)cc2n1)c1cccnc1 [Example Z337, ((R)-3-Hydroxypyrrolidin-1-yl)(2-(((S)-1-(pyridin-3-yl)ethyl)amino)-6-(trifluoromethyl)thieno[3,2-d]pyrimidin-4-yl)methanone] |  |
| > 500 | > 500 | 33.31 | 10.36 | 200.00 | < 10 | > 500 |  |  |  |  |  |  |  |  |  |  | Cc1cc2nc(N[C@@H](C)c3cccnc3)nc(C(=O)N3CC[C@@H](CO)C3)c2s1 [Example Z335, ((R)-3-(Hydroxymethyl)pyrrolidin-1-yl)(6-methyl-2-(((S)-1-(pyridin-3-yl)ethyl)amino)thieno[3,2-d]pyrimidin-4-yl)methanone] |  |
|  |  |  |  | 12.76 | 10 to 50 | 100 to 500 | > 500 | 8.7 | 4.19 | 4.86 |  | 0 | 4.87 | 1.5 | 15 | > 500 | C[C@H](Nc1nc(C(=O)N2CC[C@@H](O)C2)c2sccc2n1)c1ccccn1 [Example Z59, ((R)-3-Hydroxypyrrolidin-1-yl)(2-(((S)-1-(pyridin-2-yl)ethyl)amino)thieno[3,2-d]pyrimidin-4-yl)methanone] |  |
|  |  |  |  | 7.99 | < 10 | 50 to 100 | > 500 | 26.7 | 46.1 | 15.05 | 17.9 | 0 | 16.29 | 6.53 | 8 | > 500 | C[C@H](Nc1nc(C(=O)N2CCCC2)c2sccc2n1)c1ccccn1 [Example Z10, (S)-(2-((1-(Pyridin-2-yl)ethyl)amino)thieno[3,2-d]pyrimidin-4-yl)(pyrrolidin-1-yl)methanone] |  |
|  |  |  |  | 15.14 | 50 to 100 | > 500 | > 500 | 4.46 | 1.73 | 0.0 | 0.19 | 0 | 5.60 | 2.21 | 10 | > 500 | C[C@H](Nc1nc(C(=O)N2CC[C@H](O)C2)c2sccc2n1)c1ccccn1 [Example Z58, ((S)-3-Hydroxypyrrolidin-1-yl)(2-(((S)-1-(pyridin-2-yl)ethyl)amino)thieno[3,2-d]pyrimidin-4-yl)methanone] |  |
| > 500 | > 500 |  |  | 149.76 | < 10 | > 500 |  |  |  |  |  |  |  |  |  |  | (6-Amino-2-(((S)-1-(5-fluoropyridin-3-yl)ethyl)amino)thieno[3,2-d]pyrimidin-4-yl)((S)-3-hydroxypyrrolidin-1-yl)methanone [Example Z212] | CYP 450 % INH @ 10 μM (CYP 450): 19.6%; Hep CLint [13]: 1.64 mL/min/10^6 cells; Hep CLint [14]: 5.95 mL/min/10^6 cells |
|  |  |  |  |  | 10 to 50 | > 500 |  |  |  |  |  |  |  |  |  |  | Cc1cc2nc(N[C@@H](C)c3cncc(F)c3)nc(C(=O)N3CC[C@H](N)C3)c2s1 [Example Z412, ((S)-3-Aminopyrrolidin-1-yl)(2-(((S)-1-(5-fluoropyridin-3-yl)ethyl)amino)-6-methylthieno[3,2-d]pyrimidin-4-yl)methanone] | IC50 (adenosine A1 receptor [15]): > 500 nM; LM CLint [16]: 26.34 μL/min/mg/protein; Ratio (adenosine A2B receptor; [20]): 166.77; IC50 (adenosine A3 receptor [17]): > 500 nM; LM CLint [18]: 0.15 μL/min/mg/protein |
|  |  |  |  |  | < 10 | > 500 |  |  |  |  |  |  |  |  |  |  | Cc1cc2nc(N[C@@H](C)c3cncc(F)c3)nc(C(=O)N3CC(N)C3)c2s1 [Example Z430, (S)-(3-Aminoazetidin-1-yl)(2-((1-(5-fluoropyridin-3-yl)ethyl)amino)-6-methylthieno[3,2-d]pyrimidin-4-yl)methanone] | IC50 (adenosine A1 receptor [15]): > 500 nM; LM CLint [16]: 4.83 μL/min/mg/protein; Ratio (adenosine A2B receptor; [20]): 177.08; IC50 (adenosine A3 receptor [17]): > 500 nM; LM CLint [18]: 5.77 μL/min/mg/protein |
| > 500 | 50 to 100 | 57.04 | 10.94 | 3.05 | < 10 | 10 to 50 |  |  |  |  |  |  |  |  |  |  | CO[C@@H]1CCN(C(=O)c2nc(N[C@@H](C)c3ccccn3)nc3cc(C)sc23)C1 [Example Z312, ((R)-3-Methoxypyrrolidin-1-yl)(6-methyl-2-(((S)-1-(pyridin-2-yl)ethyl)amino)thieno[3,2-d]pyrimidin-4-yl)methanone] |  |
| > 500 | > 500 | 7.73 | 12.73 | 288.73 | < 10 | > 500 |  |  |  |  |  |  |  |  |  |  | C[C@H](Nc1nc(C(=O)N2CC[C@@H](O)C2)c2sc(C(F)(F)F)cc2n1)c1cncc(F)c1 [Example Z391, (2-(((S)-1-(5-Fluoropyridin-3-yl)ethyl)amino)-6-(trifluoromethyl)thieno[3,2-d]pyrimidin-4-yl)((R)-3-hydroxypyrrolidin-1-yl)methanone] |  |
